From ChEMBL document CHEMBL1201862, “PubChem BioAssay data set” (2004)
The source made the active and inactive calls. For most assays here, no stated cut-off is given here; in the data, actives have a measured EC50 and inactives only a lower limit.

Experiments:
cells [1] = format: functional, cell-based
cells [2] = format: functional, cell-based; remark: listed apart in the source
[3] = target: T1, Mannose-6-phosphate isomerase (Homo sapiens, UniProt P34949); experiment: MPI inhibition at elevated mannose 6-phosphate – biochemical, fluorescence intensity, high mannose 6-phosphate, primary screen (AID 1220)
T1 sequence (P34949 whole entry): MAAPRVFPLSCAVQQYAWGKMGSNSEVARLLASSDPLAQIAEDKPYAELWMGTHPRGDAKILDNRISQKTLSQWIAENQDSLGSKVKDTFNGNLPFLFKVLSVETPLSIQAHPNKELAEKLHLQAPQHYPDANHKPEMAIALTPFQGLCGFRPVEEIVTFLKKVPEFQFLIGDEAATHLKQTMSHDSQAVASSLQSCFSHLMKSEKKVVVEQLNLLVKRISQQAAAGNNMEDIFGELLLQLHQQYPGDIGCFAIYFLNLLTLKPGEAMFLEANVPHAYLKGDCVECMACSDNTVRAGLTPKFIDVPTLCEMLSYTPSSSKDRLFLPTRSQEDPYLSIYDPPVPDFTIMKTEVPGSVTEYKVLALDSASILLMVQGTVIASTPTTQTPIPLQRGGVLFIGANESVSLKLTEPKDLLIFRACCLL

[4] = target: Voltage-dependent T-type calcium channel subunit alpha-1H (Homo sapiens, UniProt O95180); format: functional;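 further: channel activity triggered by adding a high calcium stimulation buffer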
[5] = target: T2, Acyl-homoserine lactone acylase PvdQ (Pseudomonas aeruginosa (strain LESB58), UniProt Q9I194); experiment: PvdQ acylase enzyme activity blockers – biochemical, fluorescence, plate reader and imaging, cherry-picks, dose response (AID 493231)
T2 sequence (Q9I194 whole entry): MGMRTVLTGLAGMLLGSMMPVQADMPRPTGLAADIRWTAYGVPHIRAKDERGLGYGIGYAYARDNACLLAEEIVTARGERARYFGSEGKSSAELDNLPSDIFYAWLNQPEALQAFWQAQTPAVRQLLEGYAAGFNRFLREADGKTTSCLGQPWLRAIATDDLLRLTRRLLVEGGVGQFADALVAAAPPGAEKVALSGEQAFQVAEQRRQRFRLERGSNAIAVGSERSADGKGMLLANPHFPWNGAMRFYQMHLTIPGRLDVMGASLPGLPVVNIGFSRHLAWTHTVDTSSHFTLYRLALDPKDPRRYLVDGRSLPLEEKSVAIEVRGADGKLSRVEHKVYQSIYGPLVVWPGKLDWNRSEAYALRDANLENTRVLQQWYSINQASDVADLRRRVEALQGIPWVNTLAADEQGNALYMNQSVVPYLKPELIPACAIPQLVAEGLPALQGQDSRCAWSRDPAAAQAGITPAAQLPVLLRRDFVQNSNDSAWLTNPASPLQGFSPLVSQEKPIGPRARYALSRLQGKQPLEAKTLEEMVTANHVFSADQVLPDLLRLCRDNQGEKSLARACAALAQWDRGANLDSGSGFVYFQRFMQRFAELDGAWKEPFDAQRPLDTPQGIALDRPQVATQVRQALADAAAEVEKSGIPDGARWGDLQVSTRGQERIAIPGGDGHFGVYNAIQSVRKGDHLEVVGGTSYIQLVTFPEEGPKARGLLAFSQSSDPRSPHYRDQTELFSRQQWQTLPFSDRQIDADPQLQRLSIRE

[6] = luciferase reporter signal suppression in cells – H4 neuroglioma cells, luminescence, dose response (AID 1990); format: functional, cell-based
[7] = Luminescence Cell-Based Dose Response HTS to Identify Inhibitors of 5'UTR Stem-Loop Driven Prion Protein mRNA Translation in H4 Neuroglioblastoma Cells. [Related pubchem assays: 1827 (Project Summary), 1813 (Primary HTS)]; format: functional
[8] = alpha-synuclein stem-loop luciferase translation blockers – H4 neuroglioma cells, luminescence, confirmation (AID 1988); format: functional, cell-based
[9] = HEK-293T cell viability reduction – luminescence, B-cell screen hits, cytotoxicity control for BCR NF-kB inhibitor project, dose response (AID 489021); format: functional, cell-based;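 further: HEK-293T cells carrying an NF-kB luciferase reporter; cells exposed to compound for about 14 hours before viability readout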
HEK293 = experiment: EBV LMP1 TES2 canonical NF-kB signalling blockers – cell-based, HEK293, luciferase, cherry-pick, dose response (AID 588343); format: functional; conditions: Homo sapiens
[10] = target: T3, Replicative DNA helicase DnaB (Mycobacterium tuberculosis, UniProt P9WMR3); experiment: DnaB intein splicing inhibitors, dose response, biochemical, cell-free fluorescence (AID 449749); format: functional
T3 sequence (P9WMR3 whole entry): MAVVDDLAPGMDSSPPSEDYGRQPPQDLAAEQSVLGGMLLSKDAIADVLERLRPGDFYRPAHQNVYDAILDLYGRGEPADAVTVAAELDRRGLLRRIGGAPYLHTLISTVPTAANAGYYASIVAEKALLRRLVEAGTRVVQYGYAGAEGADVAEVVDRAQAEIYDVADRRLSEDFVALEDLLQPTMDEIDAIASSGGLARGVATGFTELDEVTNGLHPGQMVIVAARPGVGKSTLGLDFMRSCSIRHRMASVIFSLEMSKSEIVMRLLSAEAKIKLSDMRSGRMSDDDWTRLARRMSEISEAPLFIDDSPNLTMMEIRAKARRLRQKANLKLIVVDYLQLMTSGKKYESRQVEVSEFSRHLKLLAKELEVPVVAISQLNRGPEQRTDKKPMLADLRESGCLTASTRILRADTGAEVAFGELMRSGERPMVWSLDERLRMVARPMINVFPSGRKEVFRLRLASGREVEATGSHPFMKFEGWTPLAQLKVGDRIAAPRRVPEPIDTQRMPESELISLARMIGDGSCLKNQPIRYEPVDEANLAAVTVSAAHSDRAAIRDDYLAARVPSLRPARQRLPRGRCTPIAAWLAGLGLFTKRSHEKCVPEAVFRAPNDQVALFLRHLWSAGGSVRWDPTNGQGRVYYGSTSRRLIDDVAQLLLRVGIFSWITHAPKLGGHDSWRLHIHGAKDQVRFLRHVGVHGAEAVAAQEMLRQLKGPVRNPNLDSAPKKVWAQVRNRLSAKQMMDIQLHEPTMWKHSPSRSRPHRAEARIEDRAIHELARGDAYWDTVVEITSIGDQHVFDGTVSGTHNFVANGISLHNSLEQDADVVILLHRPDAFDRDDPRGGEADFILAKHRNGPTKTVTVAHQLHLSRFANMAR

Protein RecA = target: T4, Protein RecA (Mycobacterium tuberculosis, UniProt P9WHJ3); experiment: Fluorescence Cell-Free Homogeneous Dose Retest to Identify Inhibitors of RecA-Intein Splicing Activity. [Related pubchem assays (depositor defined):AID2097, AID2223, AID489010, AID492950]; format: functional
T4 sequence (P9WHJ3 whole entry): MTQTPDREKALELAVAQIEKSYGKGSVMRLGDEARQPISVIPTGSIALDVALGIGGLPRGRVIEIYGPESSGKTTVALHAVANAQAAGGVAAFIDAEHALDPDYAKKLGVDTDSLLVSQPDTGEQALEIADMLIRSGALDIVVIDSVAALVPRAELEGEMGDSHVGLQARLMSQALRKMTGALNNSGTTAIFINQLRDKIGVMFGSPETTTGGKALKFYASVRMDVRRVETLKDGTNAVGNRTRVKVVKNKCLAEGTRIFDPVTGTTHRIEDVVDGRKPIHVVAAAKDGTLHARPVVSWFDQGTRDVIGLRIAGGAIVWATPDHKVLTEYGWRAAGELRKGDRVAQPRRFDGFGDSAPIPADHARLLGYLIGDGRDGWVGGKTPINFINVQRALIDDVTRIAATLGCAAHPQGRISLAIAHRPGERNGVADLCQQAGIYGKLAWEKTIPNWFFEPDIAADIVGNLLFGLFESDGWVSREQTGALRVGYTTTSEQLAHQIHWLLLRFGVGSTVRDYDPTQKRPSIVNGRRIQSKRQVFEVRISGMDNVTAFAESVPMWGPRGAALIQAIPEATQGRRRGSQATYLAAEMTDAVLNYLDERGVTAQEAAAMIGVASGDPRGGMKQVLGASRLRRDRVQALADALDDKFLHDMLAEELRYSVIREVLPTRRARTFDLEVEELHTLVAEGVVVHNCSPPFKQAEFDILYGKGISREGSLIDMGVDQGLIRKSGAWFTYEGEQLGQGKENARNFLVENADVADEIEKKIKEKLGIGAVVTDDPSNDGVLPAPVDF

Cytochrome P450 3A4 = Cytochrome P450 3A4 (Homo sapiens, UniProt P08684); conditions: Potency;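 further: confirmatory qHTS run detecting inhibitors and substrates of CYP3A4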
BJ [11] = experiment: cells; format: functional, cell-based, Homo sapiens; conditions: Homo sapiens, BJ
BJ [12] = experiment: BJ-TERT fibroblast viability loss – cell-based, RAS-independent, luminescence, dose response (AID 1933); format: functional, Homo sapiens; conditions: Homo sapiens, BJ
[13] = DRD fibroblast viability loss – cell-based, non-viral oncogenic, luminescence, dose response (AID 1934); format: functional; conditions: Homo sapiens
BJ [14] = experiment: BJ-TERT-LT-ST fibroblast viability loss – cell-based, RAS-independent, luminescence, dose response (AID 1935); format: functional, Homo sapiens; conditions: Homo sapiens, BJ;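 further: BJ fibroblasts immortalized with TERT plus LT and ST oncogenes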
INS1 = experiment: INS-1E survival protection against cytokine death – cell-based, luminescence, retest, dose response (AID 449756); format: functional; conditions: Rattus norvegicus;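 further: cell death triggered by IL-1 beta plus TNF-alpha plus IFN-gamma mixture; protective hits raise ATP signal compared with cytokine alone wells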
[15] = NIH-3T3 fibroblast cytotoxicity, dose response, cytotoxicity control, cell-based, fluorescence, Alamar Blue, secondary assay (AID 2327); format: functional;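 further: NIH-3T3 mouse fibroblasts cultured with fluconazole at 8 µg/mL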
[16] = fluconazole-exposed Candida albicans growth modulators – fluorescence, retest, confirmation (AID 2467); format: functional, cell-based
[17] = target: T5, Rac GTPase-activating protein 1 (Homo sapiens, UniProt Q9H0H5); experiment: blockers of MgcRacGAP-driven Rac1 GTP hydrolysis – biochemical, ADP Hunter fluorescence, primary and confirmatory, confirmation (AID 624330); format: functional
T5 sequence (Q9H0H5 whole entry): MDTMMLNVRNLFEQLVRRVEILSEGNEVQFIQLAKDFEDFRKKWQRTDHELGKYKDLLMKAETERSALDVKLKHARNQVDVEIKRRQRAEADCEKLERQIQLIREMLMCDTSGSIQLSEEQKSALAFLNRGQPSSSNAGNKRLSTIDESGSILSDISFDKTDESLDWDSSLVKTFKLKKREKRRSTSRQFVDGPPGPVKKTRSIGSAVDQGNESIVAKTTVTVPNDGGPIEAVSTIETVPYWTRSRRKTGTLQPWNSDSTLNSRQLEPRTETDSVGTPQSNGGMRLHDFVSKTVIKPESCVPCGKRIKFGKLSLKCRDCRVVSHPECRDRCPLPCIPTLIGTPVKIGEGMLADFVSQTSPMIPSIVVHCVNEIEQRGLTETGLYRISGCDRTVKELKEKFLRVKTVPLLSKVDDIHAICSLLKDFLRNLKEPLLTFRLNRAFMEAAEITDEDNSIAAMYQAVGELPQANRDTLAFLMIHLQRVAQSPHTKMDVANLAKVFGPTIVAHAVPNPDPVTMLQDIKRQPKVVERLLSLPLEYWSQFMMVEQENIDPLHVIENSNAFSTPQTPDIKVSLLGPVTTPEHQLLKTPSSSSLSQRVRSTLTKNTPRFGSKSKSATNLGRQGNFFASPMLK

Cytochrome P450 3A4, sequence (P08684 whole entry): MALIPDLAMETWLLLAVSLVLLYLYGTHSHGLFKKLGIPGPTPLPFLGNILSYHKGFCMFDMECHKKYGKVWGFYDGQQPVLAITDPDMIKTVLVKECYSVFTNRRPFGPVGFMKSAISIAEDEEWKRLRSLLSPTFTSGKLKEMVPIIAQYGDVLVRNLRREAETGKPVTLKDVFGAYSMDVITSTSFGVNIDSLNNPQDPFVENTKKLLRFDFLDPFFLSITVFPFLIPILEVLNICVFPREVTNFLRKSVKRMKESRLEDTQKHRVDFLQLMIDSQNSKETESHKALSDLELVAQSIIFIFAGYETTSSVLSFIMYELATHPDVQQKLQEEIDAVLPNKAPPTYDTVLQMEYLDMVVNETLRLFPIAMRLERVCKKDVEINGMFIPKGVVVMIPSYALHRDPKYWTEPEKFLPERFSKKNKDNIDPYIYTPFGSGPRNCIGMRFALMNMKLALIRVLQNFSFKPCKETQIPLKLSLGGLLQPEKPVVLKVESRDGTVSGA
Voltage-dependent T-type calcium channel subunit alpha-1H, sequence (O95180 whole entry): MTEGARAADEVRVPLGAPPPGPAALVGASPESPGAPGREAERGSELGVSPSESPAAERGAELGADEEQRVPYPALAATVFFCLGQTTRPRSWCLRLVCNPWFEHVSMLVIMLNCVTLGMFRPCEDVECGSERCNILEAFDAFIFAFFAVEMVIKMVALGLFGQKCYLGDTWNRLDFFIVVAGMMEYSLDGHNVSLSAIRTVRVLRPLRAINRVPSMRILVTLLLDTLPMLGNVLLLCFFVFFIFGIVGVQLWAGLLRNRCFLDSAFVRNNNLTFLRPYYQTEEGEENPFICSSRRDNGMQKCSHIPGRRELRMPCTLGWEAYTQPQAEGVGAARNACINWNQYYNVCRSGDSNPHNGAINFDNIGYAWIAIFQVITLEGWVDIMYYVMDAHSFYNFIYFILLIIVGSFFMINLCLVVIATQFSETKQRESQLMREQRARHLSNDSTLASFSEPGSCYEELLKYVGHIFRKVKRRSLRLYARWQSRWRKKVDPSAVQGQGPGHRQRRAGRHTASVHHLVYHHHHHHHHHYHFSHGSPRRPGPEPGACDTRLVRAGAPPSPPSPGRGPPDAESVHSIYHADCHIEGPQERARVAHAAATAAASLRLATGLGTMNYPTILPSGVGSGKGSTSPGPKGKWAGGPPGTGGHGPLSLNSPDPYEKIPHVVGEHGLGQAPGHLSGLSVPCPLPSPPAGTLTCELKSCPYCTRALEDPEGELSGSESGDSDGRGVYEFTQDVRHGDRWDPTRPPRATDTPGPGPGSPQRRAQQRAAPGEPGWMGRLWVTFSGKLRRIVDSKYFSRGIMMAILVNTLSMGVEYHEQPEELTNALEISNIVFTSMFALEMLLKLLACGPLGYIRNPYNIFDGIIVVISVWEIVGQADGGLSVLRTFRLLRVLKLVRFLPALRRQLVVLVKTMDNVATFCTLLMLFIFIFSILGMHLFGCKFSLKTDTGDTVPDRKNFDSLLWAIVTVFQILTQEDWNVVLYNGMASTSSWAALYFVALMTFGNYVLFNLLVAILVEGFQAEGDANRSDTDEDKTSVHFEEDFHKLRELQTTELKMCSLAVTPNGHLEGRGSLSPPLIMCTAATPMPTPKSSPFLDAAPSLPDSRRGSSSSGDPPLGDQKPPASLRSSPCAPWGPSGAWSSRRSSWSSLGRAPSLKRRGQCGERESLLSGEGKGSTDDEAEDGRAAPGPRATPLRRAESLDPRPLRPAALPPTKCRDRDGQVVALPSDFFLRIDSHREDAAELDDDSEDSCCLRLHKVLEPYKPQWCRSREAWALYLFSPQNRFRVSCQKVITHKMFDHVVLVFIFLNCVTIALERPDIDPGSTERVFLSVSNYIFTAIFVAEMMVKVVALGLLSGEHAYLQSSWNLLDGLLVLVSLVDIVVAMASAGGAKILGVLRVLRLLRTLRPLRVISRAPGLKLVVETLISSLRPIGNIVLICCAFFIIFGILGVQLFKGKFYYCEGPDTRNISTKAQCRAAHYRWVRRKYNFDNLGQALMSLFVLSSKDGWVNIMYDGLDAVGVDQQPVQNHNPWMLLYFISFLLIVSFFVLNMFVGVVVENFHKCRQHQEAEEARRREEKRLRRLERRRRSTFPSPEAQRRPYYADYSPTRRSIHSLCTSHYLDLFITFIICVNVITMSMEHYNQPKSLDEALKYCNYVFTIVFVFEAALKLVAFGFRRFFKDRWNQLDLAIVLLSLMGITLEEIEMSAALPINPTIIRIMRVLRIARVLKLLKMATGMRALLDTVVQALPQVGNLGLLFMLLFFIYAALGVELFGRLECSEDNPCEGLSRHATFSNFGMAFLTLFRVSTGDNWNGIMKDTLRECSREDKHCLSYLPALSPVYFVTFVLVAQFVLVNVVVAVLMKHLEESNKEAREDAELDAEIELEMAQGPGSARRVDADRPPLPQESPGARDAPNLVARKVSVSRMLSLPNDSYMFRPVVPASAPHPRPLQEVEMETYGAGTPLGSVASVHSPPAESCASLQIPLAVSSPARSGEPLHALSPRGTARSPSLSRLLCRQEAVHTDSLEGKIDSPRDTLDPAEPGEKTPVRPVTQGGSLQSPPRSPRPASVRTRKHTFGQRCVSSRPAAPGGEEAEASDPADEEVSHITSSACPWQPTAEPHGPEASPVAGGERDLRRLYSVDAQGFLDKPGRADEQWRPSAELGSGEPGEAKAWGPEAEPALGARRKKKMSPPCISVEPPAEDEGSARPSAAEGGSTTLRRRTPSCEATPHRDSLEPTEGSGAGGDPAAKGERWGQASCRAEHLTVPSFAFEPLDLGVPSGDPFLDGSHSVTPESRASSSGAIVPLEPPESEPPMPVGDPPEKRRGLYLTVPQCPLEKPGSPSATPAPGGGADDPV

## Cc1nc(NCCc2ccccc2)c(C#N)c(C)c1[N+](=O)[O-]
Cells [1]
  EC50: > 350 µM (not active)
Cells [2]
  EC50: > 350 µM (not active)

## CCOc1cc(N2CCOCC2)c(OCC)cc1N=C(S)NCCCOC
[3]
  IC50: > 50 µM (not active)

## O=C(CN1CCN(c2ccccn2)CC1)N(c1ccccc1)c1ccc2ccccc2c1
[4]
  EC50: 6.52 µM (active)

## Brc1ccc(-c2nnc(-c3ccco3)o2)cc1
[5]
  AC50: 46.2 µM (active)

## O=C(CCCN1C(=O)/C(=C/c2ccccc2Cl)SC1=S)NNC(=O)c1ccccc1Cl
[6]
  EC50: 5.95 µM (active)
[7]
  EC50: 10.5 µM (active)
[8]
  EC50: 7.8 µM (active)
[9]
  IC50: > 80 µM (inactive)
HEK293
  AC50: 9.18 µM (active)

## Cc1ccccc1NC(=O)c1ccc(CN2CCc3ccccc3C2)cc1
[4]
  EC50: 2.28 µM (active)

## Cc1nn(Cc2ccccc2)c(C)c1NC(=O)c1cc(-c2ccco2)on1
[4]
  EC50: 9.33 µM (active)

## CCCc1n[nH]c2c1C(c1ccoc1)C(C#N)=C(N)O2 (stereo not drawn)
[10]
  AC50: 4.51 µM (active)
Protein RecA
  EC50: 2.39 µM (active)
Cells [1]
  EC50: > 350 µM (not active)
Cells [2]
  EC50: > 350 µM (not active)

## CCN(CC)CCCCn1c(-c2ccccc2)nc2c(NC3CCCCC3)nc(C)nc21
Cytochrome P450 3A4
  AC50: 25.1 µM (inconclusive)

## O=S1(=O)CCOC[C@H](c2ccccc2)N1Cc1cccc(Cl)c1
[5]
  AC50: 12.7 µM (active)

## O=C1C=C(c2cc(F)ccc2F)C[C@@H](c2ccc(F)cc2)C1
[5]
  AC50: 9.05 µM (active)

## Cc1ccccc1-n1c(SCc2c(C)noc2C)nnc1-c1c[nH]c2ccccc12
[9]
  IC50: > 80 µM (inactive)

## Cc1nc(N2CCOCC2)c2nc(-c3ccccc3)n(CCN3CCCC3)c2n1
Cytochrome P450 3A4
  AC50: 20 µM (inconclusive)

## CCOCCCNc1nc2c(C)cccn2c(=O)c1/C=C1\SC(=S)N(C(C)CC)C1=O (stereo not drawn)
BJ [11]
  EC50: > 150 µM (not active)
BJ [12]
  EC50: > 150 µM (not active)
[9]
  IC50: > 80 µM (inactive)
[13]
  EC50: 38.5 µM (active)
BJ [14]
  EC50: > 150 µM (inconclusive)

## Cc1ccc(/C=N/NC(=O)c2c(-c3ccccc3)noc2C)c(O)c1
INS1
  AC50: 2.33 µM (active)
Cells [1]
  EC50: 12.4 µM (active)
[15]
  EC50: > 150 µM (inactive)
[16]
  EC50: 2.83 µM (active)
Cells [2]
  EC50: > 350 µM (not active)

## CCOc1cc(/C=N/NC(=O)c2c(-c3ccccc3)noc2C)ccc1O
Cells [1]
  EC50: > 350 µM (not active)
[17]
  IC50: 55.5 µM (active)
Cells [2]
  EC50: > 350 µM (not active)

## C/C(=N\NC(=O)CN1CCCCC1)c1ccccc1O
Cells [1]
  EC50: 29.7 µM (active)
Cells [2]
  EC50: > 350 µM (not active)

## Nc1nc[nH]n1 [AMITROLE]
Cytochrome P450 3A4
  AC50: 15.8 µM (inconclusive)

## COc1cc(O)c2c(=O)cc(C)oc2c1CC=C(C)C [HETEROPEUCENIN, METHYL ETHER]
Cytochrome P450 3A4
  AC50: 39.8 µM (inconclusive)
